According to patent US20260207616A1, “COMBINATION THERAPIES FOR TREATMENT OF HEARING DISORDERS” (GATEWAY BIOTECHNOLOGY, INC., priority 2023, published 2026):

Test system: tinnitus positive mice
Assay: go/no-go trials, sound-based avoidance detection (SBAD) in noise-induced tinnitus mice
Type: in vivo
Conditions: intraperitoneal injection; for dosage reached before the agent alone was effective in treating the animals tinnitus: single agent
Description: With reference to FIGS. 1A-1D, single drug treatment of tinnitus is evaluated using the go/no-go methodology further elaborated upon in Example 4. With reference to FIGS. 2A-2B, multi drug treatment of tinnitus is evaluated using the go/no-go methodology further elaborated upon in Example 4. […] Using a shuttle box divided into two compartments, mice were trained to cross from side to side with sound cues in the “Go” trials and remain still in the absence of sound in the “No-Go” trials for 15 days. […] The sound cues were randomly played as white noise or narrow-band noise at 8,10,12.5,16, and 29 kHz with sound intensities randomly at 75, 80, or 85 dB. […] Additionally, a hurdle was added on training 11 to reinforce the training. After the 15th training day, mice were tested for 3 days to obtain a baseline score to be compared after noise exposure, as well as retraining for 3 days. Following the successful completion of training so that mice reached a high percentage of success in the trials, the mice were exposed to a noise-induced trauma for tinnitus over a two day period. To ensure that the mice still have their hearing, one ear was protected with an ear plug, while the other ear was exposed to the noise. The mice were placed in a sound booth where they were exposed to 120 dB broadband noise at 4-25 kHz for two hours. Following the noise exposure, the mice were housed for one month, and then tested to see if they have developed tinnitus. In these testing periods, the mice were tested for three days in the shuttle boxes, where they underwent the Go and No-Go trials, however in the No-Go trials the mice were not shocked, as it is expected that mice with tinnitus would cross compartments in the absence of a sound cue. The mice were continued to be shocked in the Go trials in order to ensure that they have retained their hearing and can hear the sound cues. […] To insure there is a significant difference in the No-Go trial scores, chi-square tests were completed comparing the post-noise exposure tests to the baseline tests. However, if tinnitus is not present in the mice, tests were done after waiting one more month, and another if needed. […] The Go and No-Go scores for the tests were compared using chi-square tests in Social Science Statistics and JASP. The chi-square tests were used first to determine whether mice were tinnitus positive by comparing the No-Go baseline scores pre-noise exposure to the No-Go post-noise exposure scores, with a significant difference (p-value<0.05) in at least 2 of the tests indicating a tinnitus positive mouse. Following this conclusion, the mice were tested accordingly to determine if their No-Go scores could be improved by different drug doses and combinations. […] The No-Go scores at 3 months post-noise exposure were compared to baselines to assess for tinnitus. Mice had significant decreases on all 3 days of testing. This indicates these mice had tinnitus. One or more mice is a control animal. In looking at the Go scores for the tinnitus animals when tested with the specified drugs, mice had significant decreases in their scores when. […] In contrast, a lack of change in the No-Go scores indicates the first and/or second agent was not effective in treating the animal's tinnitus, and decrease in the score may indicate that the animal's tinnitus was worsened.

Compound: CCOC(=O)C1=C(COCCN)NC(C)=C(C(=O)OC)C1c1ccccc1Cl (centres unmarked) [AML, amlodipine]
- correct percentage result in the no-go trial (AML 5 mg/kg): ~90%
- correct percentage result in the no-go trial (AML 8 mg/kg): ~95%

Compound: COCCOC(=O)C1=C(C)NC(C)=C(C(=O)OC(C)C)C1c1cccc([N+](=O)[O-])c1 (centres unmarked) [NMDP, nimodipine]
- correct percentage result in the no-go trial (NMDP 30 mg/kg): ~95%
- correct percentage result in the no-go trial (NMDP 50 mg/kg): ~95%
- dosage reached before the agent alone was effective in treating the animals tinnitus: about 30 mg/kg

Compound: COc1ccc2cc1Oc1ccc(cc1)C[C@H]1c3cc(c(OC)cc3CCN1C)Oc1c(OC)c(OC)cc3c1[C@H](C2)N(C)CC3 [TET, tetrandrine]
- correct percentage result in the no-go trial (TET 60 mg/kg): ~90%
- correct percentage result in the no-go trial (TET 90 mg/kg): ~95%
- dosage reached before the agent alone was effective in treating the animals tinnitus: about 30 mg/kg

Compound: NC(=O)N1c2ccccc2C=Cc2ccccc21 [CBZ, carbamazepine]
- correct percentage result in the no-go trial (CBZ 5 mg/kg, within a margin of error of the saline dosed mice): less than 70%
- correct percentage result in the no-go trial (CBZ 8 mg/kg): less than 80%

Compound: CCC1(C)CC(=O)NC1=O (centres unmarked) [ESM, ethosuximide]
- correct percentage result in the no-go trial (ESM 300 mg/kg): ~70%
